How the values were obtained:
MHCII in B cells = assay: competitive displacement of peptides in the peptide binding groove of MHCII in B cells; format: cell-based; conditions: preliminary studies
Experimental: To confirm the expression of MHCII staining with fluorochrome-conjugated anti-MHCII antibodies, followed by flow cytometric analysis may be performed. The cells are stained for a panel of cell surface molecules, including CD19, CD80 (B7.1), CD86 (B7.2), CD74, MHCII associated invariant peptide (CLIP), and the family of immune check points, including PD1, B7-H2, and B7-H4. As a starting concentration, the cultured cells are treated with a competitive antagonist peptide (CAP) at a concentration of 5 μg/ml, as established from preliminary studies as the optimum concentration for competitive displacement of peptides in the peptide binding groove of MHCII in B cells. […] To characterize these parameters, including levels of MHCII and other cell surface characteristics, the cells are treated with the competitive antagonist peptide at the previously determined optimum concentration, presumably 5 μg/ml, followed by treatment with anti-MHCII antibody as a surrogate for TCR engagement. Susceptibility to MHCII-mediated cell death is assessed by treating the cells with peptide, followed by treatment with anti-MHCII antibody for periods ranging between 3 and 24 hours to determine the optimum kinetics for inducing cell death. […] The capability of CAP peptide treatment to promote MHCII-mediated cell death may be assessed.

[1] = system: MHC class II expressing B cells; assay: MHCII-mediated cell death of CpG-activated cells after peptide and anti-MHCII antibody; format: cell-based, C57/B6 mice; conditions: CpG activated cells treated with peptide followed by antibodies to MHCII; FIG. 3A
Experimental: In a first experiment, animals were injected with complete Freunds adjuvant (CFA) that contains mycobacterial DNA (a well-established TLR activator), or with CFA followed by the competitive antagonist peptide (CLIP inhibitor, SEQ ID NO. 2). Spleens were harvested, stained with CD19 for the detection of B cells, versus CLIP as an indicator of CD19+ cells expressing CLIP. The effect of CLIP inhibitors delivered in vivo on B cells (1A) versus CLIP+B cells (1B) is presented in the bar graphs.
To test the hypothesis that CLIP in the groove prevents MHCII-mediated cell death, we utilized animals that are deficient in CD74 expression (Ii Def mice), thus lacking both the precursor CD74 molecule as well as its proteolytic product, CLIP. […] any increase in cell death following CpG treatment, FIGS. 3A and 3B. […] The absence of CLIP (CLIP knock outs) leaves the cells susceptible to MHC Class II-mediated cell death (3B).

In the case of FRIMAVLAS [TPP], the “optimum concentration for competitive displacement of peptides in the peptide binding groove of MHCII” value (MHCII in B cells) is reported as 5 µg/mL and the “MHC Class-II-mediated cell death” value [1] is reported as “MHC Class-II-mediated cell death can be restored”.

Reference: patent US20200268831A1, “METHODS FOR ENHANCING IMMUNOTHERAPY IN THE TREATMENT OF CANCER” (The Texas A&M University System, priority 2017, published 2020)
